# Experimental data reported in patent publication US20120329787A1, “FUNGICIDAL PYRANONES AND OXAZINONES” (E.I. DU PONT DE NEMOURS AND COMPANY, priority 2011, published 2012).
# Marks after values point to notes of the source that are not given here.
# Key:
# Format in all cases: in vivo
# Rhizoctonia solani = assay: Test D: turf brown patch, spray on creeping bent grass seedlings the day before inoculation; conditions: 200 ppm test suspension
# Excerpt: General protocol for preparing test suspensions for Tests A-I: the test compounds were first dissolved in acetone in an amount equal to 3% of the final volume and then suspended at the desired concentration (in ppm) in acetone and purified water (50/50 mix by volume) containing 250 ppm of the surfactant Trem® 014 (polyhydric alcohol esters). The resulting test suspensions were then used in Tests A-I. Spraying a 200 ppm test suspension to the point of run-off on the test plants was the equivalent of a rate of 500 g/ha. […] (An asterisk “*” next to the rating value indicates a 40 ppm test suspension was used.) The test suspension was sprayed to the point of run-off on creeping bent grass (Agrostis sp.) seedlings. The following day, the seedlings were inoculated with a bran and mycelial slurry of Rhizoctonia solani (the causal agent of turf brown patch) and incubated in a saturated atmosphere at 27° C. for 48 h, and then moved to a growth chamber at 27° C. for 3 days, after which time disease ratings were made. […] A dash (-) indicates no test results. All results are for 200 ppm except where followed by an asterisk “*”, which indicates a 40 ppm.
# [1] = tested on: Erysiphe graminis f. sp. tritici; assay: Test I: wheat powdery mildew, spray on wheat seedlings the day before inoculation; conditions: for pest or weed control at 200 ppm: Blumeria graminis, 168 h, read-out: Test I rating (100 = 100% disease control, 0 = no disease control)
# Procedure, shortened: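 Wheat seedlings sprayed to run-off with compound at 200 ppm (40 ppm where marked; 200 ppm ≈ 500 g/ha) in acetone/water with 250 ppm surfactant. Inoculated next day with E. graminis spore dust; visual disease rating after 7 days at 20° C.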
# Botrytis cinerea = assay: Test A: tomato Botrytis, spray on tomato seedlings the day before inoculation; conditions: for pest or weed control at 200 ppm: Botrytis cinerea, 120 h, read-out: Test A rating (100 = 100% disease control, 0 = no disease control)
# Procedure, shortened: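 Tomato seedlings sprayed to run-off with compound suspension (200 ppm, ≈500 g/ha; some at 40 ppm) in acetone/water with 250 ppm Trem 014, inoculated next day with Botrytis cinerea spores. Held 48 h saturated at 20 °C, then 3 days at 24 °C; disease rated visually.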
# Alternaria solani = assay: Test B: tomato early blight, spray on tomato seedlings the day before inoculation; conditions: for pest or weed control at 200 ppm: Alternaria solani, 168 h, read-out: Test B rating (100 = 100% disease control, 0 = no disease control)
# Procedure, shortened: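 Tomato seedlings sprayed to run-off with 200 ppm suspension (40 ppm where asterisked), inoculated next day with Alternaria solani spores. Kept 48 h at 27 °C in saturated atmosphere, then 5 days at 20 °C before visual disease rating.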
# Phytophthora infestans = conditions: 200 ppm test suspension; tomato seedlings
# [2] = tested on: Puccinia recondita f. sp. tritici; assay: Test H: wheat leaf rust, spray on wheat seedlings the day before inoculation; conditions: sprayed before inoculation; for pest or weed control at 200 ppm: Puccinia recondita, 168 h, read-out: Test H rating (100 = 100% disease control, 0 = no disease control)
# Procedure, shortened: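 Wheat seedlings sprayed to run-off with compound suspensions (acetone/water with surfactant; 200 ppm ≈ 500 g/ha, or 40 ppm), inoculated next day with rust spores. Plants kept 24 h in saturated atmosphere at 20 °C, then 6 days in a 20 °C growth chamber before visual disease rating.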
# Septoria nodorum = assay: Test E: Septoria glume blotch, spray on wheat seedlings the day before inoculation; conditions: for pest or weed control at 200 ppm: Parastagonospora nodorum, 264 h, read-out: Test E rating (100 = 100% disease control, 0 = no disease control)
# Procedure, shortened: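 Compounds in acetone/water (50/50) with 250 ppm Trem 014 surfactant, sprayed to run-off on wheat seedlings the day before Septoria nodorum inoculation. Tested at 200 ppm (equivalent to 500 g/ha) unless marked 40 ppm.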
# Septoria tritici = assay: Test F: wheat leaf blotch, spray on wheat seedlings the day before inoculation; conditions: for pest or weed control at 200 ppm: Zymoseptoria tritici, 504 h, read-out: Test F rating (100 = 100% disease control, 0 = no disease control)
# Procedure, shortened: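 Wheat seedlings sprayed to run-off with 200 ppm (≈500 g/ha) or 40 ppm suspension in acetone/water with 250 ppm Trem 014. Next day inoculated with Septoria tritici spores, held 48 h saturated at 24° C, then 19 days at 20° C before visual disease rating.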
# [3] = tested on: Puccinia recondita f. sp. tritici; assay: Test G: wheat leaf rust, spray on wheat seedlings after inoculation (curative); conditions: sprayed after inoculation; for pest or weed control at 200 ppm: Puccinia recondita, 96 h, read-out: Test G rating (100 = 100% disease control, 0 = no disease control)
# Procedure, shortened: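 Curative test: wheat seedlings inoculated with P. recondita spores, held 24 h saturated at 20 °C then 2 days at 20 °C, then sprayed to run-off with compound suspension (200 ppm ≈ 500 g/ha; asterisk = 40 ppm) in acetone/water with 250 ppm surfactant. Visual disease rating after 4 further days at 20 °C.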
# [4] = 40 ppm test suspension (asterisk)
SMILES,"Test D rating (100 = 100% disease control, 0 = no disease control) (Rhizoctonia solani) [%]","Test I rating (100 = 100% disease control, 0 = no disease control) ([1]; 200 ppm test suspension) [%]","Test A rating (100 = 100% disease control, 0 = no disease control) (Botrytis cinerea; 200 ppm test suspension) [%]","Test B rating (100 = 100% disease control, 0 = no disease control) (Alternaria solani; 200 ppm test suspension) [%]","Test C rating (100 = 100% disease control, 0 = no disease control) (Phytophthora infestans) [%]","Test H rating (100 = 100% disease control, 0 = no disease control) ([2]; 200 ppm test suspension) [%]","Test E rating (100 = 100% disease control, 0 = no disease control) (Septoria nodorum; 200 ppm test suspension) [%]",other results
Cc1noc(=O)c(-c2c(F)ccc(F)c2F)c1-c1ccc(Cl)cc1 [Compound 6],0,96,99,99,0,41,0,
Cc1noc(=O)c(-c2c(F)cc(F)cc2F)c1-c1ccc(Br)cc1 [Compound 10],90,99,98,100,0,95,0,
Cc1noc(=O)c(-c2ccc(F)cc2Cl)c1-c1ccc(Br)cc1 [Compound 14],0,0,0,5,0,0,0,
Cc1ccc(-c2c(C)noc(=O)c2-c2c(F)cc(F)cc2F)cc1 [Compound 9],99,96,90,46,0,96,0,
Cc1noc(=O)c(-c2c(F)cccc2F)c1-c1ccc(Cl)cc1 [Compound 7],75,100,100,100,0,99,0,
Cc1noc(=O)c(-c2c(F)cccc2F)c1-c1ccc(Br)cc1 [Compound 15],0,98,0,96,0,91,0,
"COc1cc(OC)c(Cl)c(-c2c(-c3ccc(F)cc3Cl)c(C)oc(=O)c2C)c1 [Compound 54, 4-(2-chloro-3,5-dimethoxyphenyl)-5-(2-chloro-4-fluorophenyl)-3,6-dimethyl-2H-pyran-2-one]",,,,,,,,pest or weed control at 200 ppm (Septoria tritici; 200 ppm test suspension): 100%; pest or weed control at 200 ppm ([1]; 200 ppm test suspension): 100%; pest or weed control at 200 ppm (Botrytis cinerea; 200 ppm test suspension): 100%; pest or weed control at 200 ppm (Alternaria solani; 200 ppm test suspension): 96%; pest or weed control at 200 ppm ([2]; 200 ppm test suspension): 100%; pest or weed control at 200 ppm ([3]; 200 ppm test suspension): 99%; pest or weed control at 200 ppm (Septoria nodorum; 200 ppm test suspension): 100%
COc1cccc(-c2c(-c3ccc(F)cc3F)c(C)oc(=O)c2-c2ccccc2F)c1 [Compound 34],,90,100,99,,100,99,"Test F rating (100 = 100% disease control, 0 = no disease control) (Septoria tritici; 200 ppm test suspension): 99%; Test G rating (100 = 100% disease control, 0 = no disease control) ([3]; 200 ppm test suspension): 95%"
COc1cc(OC)cc(-c2c(C)oc(=O)c(C)c2-c2c(F)cc(OC)cc2F)c1 [Compound 43],,100,100,100,,100,100,"Test F rating (100 = 100% disease control, 0 = no disease control) (Septoria tritici; 200 ppm test suspension): 100%; Test G rating (100 = 100% disease control, 0 = no disease control) ([3]; 200 ppm test suspension): 98%"
"COc1cc(OC)cc(-c2c(C)oc(=O)c(C)c2-c2ccc(F)cc2F)c1 [Compound 42, 4-(2,4-difluorophenyl)-5-(3,5-dimethoxyphenyl)-3,6-dimethyl-2H-pyran-2-one]",,,,,,,,pest or weed control at 200 ppm (Septoria tritici; 200 ppm test suspension): 100%; pest or weed control at 200 ppm ([1]; 200 ppm test suspension): 99%; pest or weed control at 200 ppm (Botrytis cinerea; 200 ppm test suspension): 98%; pest or weed control at 200 ppm (Alternaria solani; 200 ppm test suspension): 0%; pest or weed control at 200 ppm ([2]; 200 ppm test suspension): 100%; pest or weed control at 200 ppm ([3]; 200 ppm test suspension): 0%; pest or weed control at 200 ppm (Septoria nodorum; 200 ppm test suspension): 0%
Cc1oc(=O)c(-c2ccccc2)c(-c2ccccc2Cl)c1-c1ccccc1F [Compound 30],,,,,,,,"Test F rating (100 = 100% disease control, 0 = no disease control) (Septoria tritici; [4]): 94* %; Test I rating (100 = 100% disease control, 0 = no disease control) [1, 4]: 0* %; Test A rating (100 = 100% disease control, 0 = no disease control) (Botrytis cinerea; [4]): 99* %; Test B rating (100 = 100% disease control, 0 = no disease control) (Alternaria solani; [4]): 0* %; Test H rating (100 = 100% disease control, 0 = no disease control) [2, 4]: 91* %; Test G rating (100 = 100% disease control, 0 = no disease control) [3, 4]: 0* %; Test E rating (100 = 100% disease control, 0 = no disease control) (Septoria nodorum; [4]): 0* %"
"COc1cc(OC)cc(-c2c(-c3ccc(F)cc3F)c(C)oc(=O)c2C)c1 [Compound 48, 5-(2,4-difluorophenyl)-4-(3,5-dimethoxyphenyl)-3,6-dimethyl-2H-pyran-2-one]",,,,,,,,pest or weed control at 200 ppm (Septoria tritici; 200 ppm test suspension): 100%; pest or weed control at 200 ppm ([1]; 200 ppm test suspension): 100%; pest or weed control at 200 ppm (Botrytis cinerea; 200 ppm test suspension): 100%; pest or weed control at 200 ppm (Alternaria solani; 200 ppm test suspension): 97%; pest or weed control at 200 ppm ([2]; 200 ppm test suspension): 100%; pest or weed control at 200 ppm ([3]; 200 ppm test suspension): 100%; pest or weed control at 200 ppm (Septoria nodorum; 200 ppm test suspension): 99%
